According to ChEMBL document CHEMBL3352739, “Comparative in vivo evaluation of polyalkoxy substituted 4H-chromenes and oxa-podophyllotoxins as microtubule destabilizing agents in the phenotypic sea urchin embryo assay” (2014):

Assays:
HOP-62 = assay: Growth inhibition of human HOP62 cells after 48 hrs by sulforhodamine B assay; format: functional; conditions: HOP-62, 48 h
NCI-H226 = assay: Growth inhibition of human NCI-H226 cells after 48 hrs by sulforhodamine B assay; format: functional; conditions: NCI-H226, 48 h
NCI-H23 = assay: Growth inhibition of human NCI-H23 cells after 48 hrs by sulforhodamine B assay; format: functional; conditions: NCI-H23, 48 h
NCI-H322M = assay: Growth inhibition of human NCI-H322M cells after 48 hrs by sulforhodamine B assay; format: functional
NCI-H460 = assay: Growth inhibition of human NCI-H460 cells after 48 hrs by sulforhodamine B assay; format: functional; conditions: NCI-H460, 48 h
NCI-H522 = assay: Growth inhibition of human NCI-H522 cells after 48 hrs by sulforhodamine B assay; format: functional; conditions: NCI-H522, 48 h
[1] = Growth inhibition of human COLO205 cells after 48 hrs by sulforhodamine B assay; format: functional; conditions: COLO 205, 48 h
[2] = Growth inhibition of human HCC2998 cells after 48 hrs by sulforhodamine B assay; format: functional; conditions: HCC 2998, 48 h
[3] = Growth inhibition of human HCT116 cells after 48 hrs by sulforhodamine B assay; format: functional; conditions: HCT-116, 48 h
[4] = Growth inhibition of human HCT15 cells after 48 hrs by sulforhodamine B assay; format: functional; conditions: HCT-15, 48 h
HT-29 = assay: Growth inhibition of human HT-29 cells after 48 hrs by sulforhodamine B assay; format: functional; conditions: HT-29, 48 h
KM12 = assay: Growth inhibition of human KM12 cells after 48 hrs by sulforhodamine B assay; format: functional; conditions: KM12, 48 h
SW-620 = assay: Growth inhibition of human SW620 cells after 48 hrs by sulforhodamine B assay; format: functional; conditions: SW-620, 48 h
SF-268 = assay: Growth inhibition of human SF268 cells after 48 hrs by sulforhodamine B assay; format: functional; conditions: SF-268, 48 h
[5] = Growth inhibition of human SF295 cells after 48 hrs by sulforhodamine B assay; format: functional; conditions: SF-295, 48 h
[6] = Growth inhibition of human SF539 cells after 48 hrs by sulforhodamine B assay; format: functional; conditions: SF-539, 48 h
SNB-19 = assay: Growth inhibition of human SNB19 cells after 48 hrs by sulforhodamine B assay; format: functional; conditions: SNB-19, 48 h
SNB-75 = assay: Growth inhibition of human SNB75 cells after 48 hrs by sulforhodamine B assay; format: functional; conditions: SNB-75, 48 h
M14 = assay: Growth inhibition of human M14 cells after 48 hrs by sulforhodamine B assay; format: functional; conditions: M14, 48 h
MDA-MB-435 = assay: Growth inhibition of human MDA-MB-435 cells after 48 hrs by sulforhodamine B assay; format: functional; conditions: MDA-MB-435, 48 h
SK-MEL-5 = assay: Growth inhibition of human SK-MEL-5 cells after 48 hrs by sulforhodamine B assay; format: functional; conditions: SK-MEL-5, 48 h
[7] = Growth inhibition of human UACC257 cells after 48 hrs by sulforhodamine B assay; format: functional; conditions: UACC-257, 48 h
[8] = Growth inhibition of human UACC62 cells after 48 hrs by sulforhodamine B assay; format: functional; conditions: UACC-62, 48 h
IGROV-1 = assay: Growth inhibition of human IGROV1 cells after 48 hrs by sulforhodamine B assay; format: functional; conditions: IGROV-1, 48 h
[9] = Growth inhibition of human OVCAR3 cells after 48 hrs by sulforhodamine B assay; format: functional; conditions: OVCAR-3, 48 h
[10] = Growth inhibition of human OVCAR4 cells after 48 hrs by sulforhodamine B assay; format: functional; conditions: OVCAR-4, 48 h
[11] = Growth inhibition of human OVCAR5 cells after 48 hrs by sulforhodamine B assay; format: functional; conditions: OVCAR-5, 48 h
[12] = Growth inhibition of human OVCAR8 cells after 48 hrs by sulforhodamine B assay; format: functional; conditions: OVCAR-8, 48 h
[13] = Growth inhibition of human NCI-ADR-RES cells after 48 hrs by sulforhodamine B assay; format: functional
SK-OV-3 = assay: Growth inhibition of human SKOV3 cells after 48 hrs by sulforhodamine B assay; format: functional; conditions: SK-OV-3, 48 h
786-0 = assay: Growth inhibition of human 786-0 cells after 48 hrs by sulforhodamine B assay; format: functional; conditions: 786-0, 48 h
A498 = assay: Growth inhibition of human A498 cells after 48 hrs by sulforhodamine B assay; format: functional; conditions: A498, 48 h
ACHN = assay: Growth inhibition of human ACHN cells after 48 hrs by sulforhodamine B assay; format: functional
CAKI-1 = assay: Growth inhibition of human CAKI-1 cells after 48 hrs by sulforhodamine B assay; format: functional; conditions: CAKI-1, 48 h
[14] = Growth inhibition of human RXF393 cells after 48 hrs by sulforhodamine B assay; format: functional; conditions: RXF 393, 48 h
SN12C = assay: Growth inhibition of human SN12C cells after 48 hrs by sulforhodamine B assay; format: functional
TK-10 = assay: Growth inhibition of human TK10 cells after 48 hrs by sulforhodamine B assay; format: functional; conditions: TK-10, 48 h
[15] = Growth inhibition of human UO31 cells after 48 hrs by sulforhodamine B assay; format: functional; conditions: UO-31, 48 h
[16] = Growth inhibition of human PC3 cells after 48 hrs by sulforhodamine B assay; format: functional; conditions: PC-3, 48 h
DU-145 = assay: Growth inhibition of human DU145 cells after 48 hrs by sulforhodamine B assay; format: functional; conditions: DU-145, 48 h
MCF7 = assay: Growth inhibition of human MCF7 cells after 48 hrs by sulforhodamine B assay; format: functional; conditions: MCF7, 48 h
MDA-MB-231 = assay: Growth inhibition of human MDA-MB-231 cells after 48 hrs by sulforhodamine B assay; format: functional; conditions: MDA-MB-231, 48 h
[17] = Growth inhibition of human Hs 578T cells after 48 hrs by sulforhodamine B assay; format: functional
[18] = Growth inhibition of human BT549 cells after 48 hrs by sulforhodamine B assay; format: functional; conditions: BT-549, 48 h
T47D = assay: Growth inhibition of human T47D cells after 48 hrs by sulforhodamine B assay; format: functional
MDA-MB-468 = assay: Growth inhibition of human MDA-MB-468 cells after 48 hrs by sulforhodamine B assay; format: functional; conditions: MDA-MB-468, 48 h
[19] = Growth inhibition of human H1299 cells after 48 hrs by sulforhodamine B assay; format: functional; conditions: NCI-H1299, 48 h
Paracentrotus lividus [20] = assay: Antimitotic microtubule destabilizing activity in Paracentrotus lividus L embryos assessed as induction of cleavage alteration
Paracentrotus lividus [21] = assay: Antimitotic microtubule destabilizing activity in Paracentrotus lividus L embryos assessed as induction of cleavage arrest
Paracentrotus lividus [22] = assay: Antimitotic microtubule destabilizing activity in Paracentrotus lividus L embryos assessed as induction of embryo spinning
[23] = Cytotoxicity against human NCI60 cells; format: functional
CCRF-CEM = assay: Growth inhibition of human CCRF-CEM cells after 48 hrs by sulforhodamine B assay; format: functional
HL-60(TB) = assay: Growth inhibition of human HL-60(TB) cells after 48 hrs by sulforhodamine B assay; format: functional; conditions: HL-60, 48 h
K562 = assay: Growth inhibition of human K562 cells after 48 hrs by sulforhodamine B assay; format: functional; conditions: K562, 48 h
[24] = Growth inhibition of human MOLT4 cells after 48 hrs by sulforhodamine B assay; format: functional; conditions: MOLT-4, 48 h
[25] = Growth inhibition of human RPMI8226 cells after 48 hrs by sulforhodamine B assay; format: functional; conditions: RPMI-8226, 48 h
SR = assay: Growth inhibition of human SR cells after 48 hrs by sulforhodamine B assay; format: functional
A549 = assay: Growth inhibition of human A549/ATCC cells after 48 hrs by sulforhodamine B assay; format: functional; conditions: A549, 48 h

Molecule `COc1cccc(C2C(C#N)=C(N)Oc3cc(OC)ccc32)c1` (stereo not drawn) has a GI50 (HOP-62) of 41.6 nM, a GI50 (NCI-H226) of 835 nM and a GI50 (NCI-H23) of 40 nM. It also gave a GI50 (NCI-H322M) of 63.1 nM, a GI50 (NCI-H460) of 36.4 nM and a GI50 (NCI-H522) of under 10 nM. For the same molecule, the GI50 [1] was 45.2 nM, the GI50 [2] was 51.5 nM and the GI50 [3] was 47.9 nM. It also gave a GI50 [4] of 36.6 nM, a GI50 (HT-29) of 37 nM and a GI50 (KM12) of 30.3 nM. For the same molecule, the GI50 (SW-620) was 38.1 nM, the GI50 (SF-268) was 73.5 nM and the GI50 [5] was 25.4 nM. For the same molecule, the GI50 [6] was 25 nM, the GI50 (SNB-19) was 3.77 µM and the GI50 (SNB-75) was 27 nM. For the same molecule, the GI50 (M14) was 26.8 nM, the GI50 (MDA-MB-435) was under 10 nM and the GI50 (SK-MEL-5) was 50.3 nM. It also gave a GI50 [7] of 12.4 µM, a GI50 [8] of 70.5 nM and a GI50 (IGROV-1) of 48.2 nM. The GI50 [9] was 27.8 nM, the GI50 [10] was 535 nM and the GI50 [11] was 66.2 nM. For the same molecule, the GI50 [12] was 51.4 nM, the GI50 [13] was 14.9 nM and the GI50 (SK-OV-3) was 34 nM. The GI50 (786-0) was 50.7 nM, the GI50 (A498) was 18.6 nM and the GI50 (ACHN) was 120 nM. The GI50 (CAKI-1) was 42.6 nM, the GI50 [14] was 26 nM and the GI50 (SN12C) was 69.3 nM. For the same molecule, the GI50 (TK-10) was 11.8 µM, the GI50 [15] was 57.2 nM and the GI50 [16] was 35.7 nM. The GI50 (DU-145) was 35.1 nM, the GI50 (MCF7) was 17.1 nM and the GI50 (MDA-MB-231) was 54.6 nM. For the same molecule, the GI50 [17] was 28.3 nM, the GI50 [18] was 87.2 nM and the GI50 (T47D) was 43.7 nM. For the same molecule, the GI50 (MDA-MB-468) was 35 nM, the GI50 [19] was 55 nM and the EC (Paracentrotus lividus [20]) was 0.002 µM. For the same molecule, the EC (Paracentrotus lividus [21]) was 0.01 µM, the EC (Paracentrotus lividus [22]) was 0.05 µM and the GI50 [23] was 55 nM. For the same molecule, the GI50 (CCRF-CEM) was 31.2 nM, the GI50 (HL-60(TB)) was 25 nM and the GI50 (K562) was 19.7 nM. It also gave a GI50 [24] of 55.7 nM, a GI50 [25] of 37.4 nM and a GI50 (SR) of 20.2 nM. For the same molecule, the GI50 (A549) was 45.2 nM.
